For five compounds, IC50 results are on record in patent US20260070945A1, “MACROCYCLIC IMMUNOMODULATORS” (Bristol-Myers Squibb Company, priority 2022, published 2026).

Where a SMILES comes first, the peptide text is derived from it. Bridges are numbered along the chain shown (N, C = ends). [ ]: non-standard residue; d: D form. The star is where a group is joined. Phe(4-COOH) = N[C@@H](Cc1ccc(C(=O)O)cc1)C(=O)O; Bip = N[C@@H](Cc1ccc(-c2ccccc2)cc1)C(=O)O; Phe(4-NH2) = Nc1ccc(C[C@H](N)C(=O)O)cc1; Phe(3-Me) = Cc1cccc(C[C@H](N)C(=O)O)c1; His(π-Me) = Cn1cncc1C[C@H](N)C(=O)O; Val(3-OH) = CC(C)(O)[C@H](N)C(=O)O; 3Pal = N[C@@H](Cc1cccnc1)C(=O)O; 4Pal = N[C@@H](Cc1ccncc1)C(=O)O; Aad = N[C@@H](CCCC(=O)O)C(=O)O; Cha = N[C@@H](CC1CCCCC1)C(=O)O; Carboxymethyl = O=C(O)C*; NMeA = CN[C@@H](C)C(=O)O; Aun = NCCCCCCCCCCC(=O)O; Dab = NCC[C@H](N)C(=O)O

In this test the target is T1, PD-1/PD-L1 interaction (PE-labeled human PD-L1-Ig binding to Jurkat cell line over-expressing human PD-1) (Homo sapiens, UniProt Q15116).
T1 construct: expressed in transfected cells; host or cells: Jurkat
T1 sequence (Q15116 25-288): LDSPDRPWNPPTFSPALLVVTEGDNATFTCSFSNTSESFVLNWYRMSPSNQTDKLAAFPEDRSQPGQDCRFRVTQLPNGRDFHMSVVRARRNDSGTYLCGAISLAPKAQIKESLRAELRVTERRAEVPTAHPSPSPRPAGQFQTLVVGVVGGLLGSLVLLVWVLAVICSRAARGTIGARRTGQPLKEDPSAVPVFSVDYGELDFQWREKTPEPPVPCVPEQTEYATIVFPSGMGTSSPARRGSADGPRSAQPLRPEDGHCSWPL
The experiment in a line: Jurkat-PD-1 Cell Binding High-Content Screening Assay (CBA). Particulars: Jurkat-hPD-1 cells, PE-labeled PD-L1-Ig 20 nM final; read-out: Jurkat HPD1 PDL1 IC50. In a few lines:
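In this imaging assay, cells in 10% FCS medium see compound for 2 h at 37 °C and then labeled ligand at 20 nM final for 1 h. Paraformaldehyde fixation, Hoechst 33342 staining and dPBS washes precede image capture.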
Consider `Cc1cccc(C[C@@H]2NC(=O)[C@H](CC(=O)O)NC(=O)[C@H](Cc3ccc(OCC(=O)O)cc3)NC(=O)[C@H](Cc3ccc(N)cc3)NC(=O)CSC[C@@H](C(=O)N[C@@H](CCN)C(=O)NCCCCCCCCCCC(=O)O)NC(=O)[C@H](CO)NC(=O)[C@H](C(C)C)NC(=O)[C@H](CC3CCCCC3)NC(=O)[C@H](CCN)NC(=O)[C@@H](CC(C)C)NC(=O)[C@H](C)N(C)C(=O)[C@H](Cc3ccc(O)cc3)NC(=O)[C@H](Cc3ccc(-c4ccccc4)cc3)NC(=O)[C@H](Cc3ccc(OCC(=O)O)cc3)NC2=O)c1` [Example 1279] ({CH2CO}-[Phe(4-NH2)]Y(Carboxymethyl)D[Phe(3-Me)]Y(Carboxymethyl)[Bip]Y[NMeA][dL][Dab][Cha]VSC[Dab][Aun]-OH; thioether N-14), for which the IC50 – broadly, the concentration needed to halve the response being measured – was found to be 39.3 nM.
`Cc1cccc(C[C@@H]2NC(=O)[C@H](CC(=O)O)NC(=O)[C@H](Cc3ccc(OCC(=O)O)cc3)NC(=O)[C@H](CCCC(=O)O)NC(=O)CSC[C@@H](C(=O)N[C@@H](CCN)C(=O)NCCCCCCCCCCC(=O)O)NC(=O)[C@H](CO)NC(=O)[C@H](C(C)C)NC(=O)[C@H](CC3CCCCC3)NC(=O)[C@H](CCN)NC(=O)[C@@H](CC(C)C)NC(=O)[C@H](C)N(C)C(=O)[C@H](Cc3ccc(O)cc3)NC(=O)[C@H](Cc3ccc(-c4ccccc4)cc3)NC(=O)[C@H](Cc3ccc(OCC(=O)O)cc3)NC2=O)c1` [Example 1280] ({CH2CO}-[Aad]Y(Carboxymethyl)D[Phe(3-Me)]Y(Carboxymethyl)[Bip]Y[NMeA][dL][Dab][Cha]VSC[Dab][Aun]-OH; thioether N-14): the concentration for half-maximal inhibition (IC50) was 29.3 nM.
With `Cc1cccc(C[C@@H]2NC(=O)[C@H](CC(=O)O)NC(=O)[C@H](Cc3ccc(OCC(=O)O)cc3)NC(=O)[C@H](Cc3cncn3C)NC(=O)CSC[C@@H](C(=O)N[C@@H](CCN)C(=O)NCCCCCCCCCCC(=O)O)NC(=O)[C@H](CO)NC(=O)[C@H](C(C)C)NC(=O)[C@H](CC3CCCCC3)NC(=O)[C@H](CCN)NC(=O)[C@@H](CC(C)C)NC(=O)[C@H](C)N(C)C(=O)[C@H](Cc3ccc(O)cc3)NC(=O)[C@H](Cc3ccc(-c4ccccc4)cc3)NC(=O)[C@H](Cc3ccc(OCC(=O)O)cc3)NC2=O)c1` [Example 1281] ({CH2CO}-[His(π-Me)]Y(Carboxymethyl)D[Phe(3-Me)]Y(Carboxymethyl)[Bip]Y[NMeA][dL][Dab][Cha]VSC[Dab][Aun]-OH; thioether N-14) the figure was 22.1 nM.
Regarding `Cc1cccc(C[C@@H]2NC(=O)[C@H](CC(=O)O)NC(=O)[C@H](Cc3ccc(C(=O)O)cc3)NC(=O)[C@H](Cc3ccncc3)NC(=O)CSC[C@@H](C(=O)N[C@@H](CCN)C(=O)NCCCCCCCCCCC(=O)O)NC(=O)[C@H](CO)NC(=O)[C@H](C(C)(C)O)NC(=O)[C@H](CC3CCCCC3)NC(=O)[C@H](CCN)NC(=O)[C@@H](CC(C)C)NC(=O)[C@H](C)N(C)C(=O)[C@H](Cc3ccc(OCC(=O)O)cc3)NC(=O)[C@H](Cc3ccc(-c4ccccc4)cc3)NC(=O)[C@H](Cc3ccc(OCC(=O)O)cc3)NC2=O)c1` [Example 1282] ({CH2CO}-[4Pal][Phe(4-COOH)]D[Phe(3-Me)]Y(Carboxymethyl)[Bip]Y(Carboxymethyl)[NMeA][dL][Dab][Cha][Val(3-OH)]SC[Dab][Aun]-OH; thioether N-14), the concentration for half-maximal inhibition (IC50) is 7.2 nM.
For `Cc1cccc(C[C@@H]2NC(=O)[C@H](CC(=O)O)NC(=O)[C@H](Cc3ccc(C(=O)O)cc3)NC(=O)[C@H](Cc3cccnc3)NC(=O)CSC[C@@H](C(=O)N[C@@H](CCN)C(=O)NCCCCCCCCCCC(=O)O)NC(=O)[C@H](CO)NC(=O)[C@H](C(C)(C)O)NC(=O)[C@H](CC3CCCCC3)NC(=O)[C@H](CCN)NC(=O)[C@@H](CC(C)C)NC(=O)[C@H](C)N(C)C(=O)[C@H](Cc3ccc(OCC(=O)O)cc3)NC(=O)[C@H](Cc3ccc(-c4ccccc4)cc3)NC(=O)[C@H](Cc3ccc(OCC(=O)O)cc3)NC2=O)c1` [Example 1283] ({CH2CO}-[3Pal][Phe(4-COOH)]D[Phe(3-Me)]Y(Carboxymethyl)[Bip]Y(Carboxymethyl)[NMeA][dL][Dab][Cha][Val(3-OH)]SC[Dab][Aun]-OH; thioether N-14) the value was 15.9 nM.
